Experimental data: patent publication US20060095982A1 (priority 2002, published 2006)
Marks after values point to notes of the source that are not given here.

How the values were obtained:
Bacopa monnieri = conditions: 5 μg/ml HgCl2; cited from earlier work
[1] = tested on: transgenic tobacco lines 5A (pLDR-MerAB) and 9 (pLDR-MerAB-3′UTR); experiment: Hg accumulation in shoots and roots (CVAAS), transgenic lines
[2] = tested on: Untransformed E. coli cells (XL1-blue); experiment: Mercury resistance bioassay in bacteria, untransformed control; conditions: 25 μM HgCl2
[3] = tested on: E. coli cells containing pLDR-MerAB and pLDR-MerAB-3′UTR; experiment: Mercury resistance bioassay in bacteria, transformed clones; conditions: 24 hours at 37° C.
[4] = tested on: chloroplast engineered pLDR-merAB and pLDR-merAB 3′UTR tobacco plants; experiment: Plant growth and tolerance on Hg-amended soil (dry weight, root length), transgenic lines
WT tobacco plants [5] = experiment: Speciation of Hg by X-ray absorption spectroscopy, WT
WT tobacco plants [6] = experiment: Plant growth and tolerance on Hg-amended soil (dry weight, root length), WT
[7] = tested on: WT tobacco plant (Petit Havana); experiment: Hg accumulation in shoots and roots (CVAAS), WT
Salvia natans = conditions: 5 μg/ml HgCl2; cited from earlier work
[8] = tested on: mer-AB transgenic tobacco shoots and roots; experiment: Speciation of Hg by X-ray absorption spectroscopy, transgenic plants; conditions: 100 μM for 15 d
Chlorella = experiment: Preliminary heavy metal tolerance of wild-type Chlorella; conditions: preliminary studies
[9] = tested on: merAB seedlings (pLDR-MerAB and pLDR-MerAB-3′UTR clones); conditions: 14 days
[10] = tested on: leaf disks of transgenic tobacco lines; conditions: 10 μM PMA
[11] = tested on: wild type tobacco plants (Petit Havana); conditions: 14 days
wild type tobacco plants = conditions: increase in PMA from 0 to 400 μM in soil, 14 d
[12] = tested on: leaf disks of wild type tobacco; conditions: 10 μM PMA
[13] = tested on: transgenic tobacco lines 5A (pLDR-MerAB) and 9 (pLDR-MerAB-3′UTR)

[Cl][Hg][Cl] [HgCl2, mercuric chloride]
reduction of chlorophyll content (Bacopa monnieri): 35%
mercury accumulated in shoots of transgenic plants relative to WT ([1]; 100 μM): 3 times
mercury accumulated in shoots of transgenic plants relative to WT ([1]; 200 μM): 9 times
Hg accumulation, Root, 5A ([1]; soil amended with 100 μM): 115.1
Hg accumulation, Root, 9 ([1]; soil amended with 100 μM): 114.8
Hg accumulation, Shoot, 5A ([1]; soil amended with 100 μM): 7.42
Hg accumulation, Shoot, 9 ([1]; soil amended with 100 μM): 6.27
Hg accumulation, Root, 5A ([1]; soil amended with 200 μM): 215.5
Hg accumulation, Root, 9 ([1]; soil amended with 200 μM): 149.5
Hg accumulation, Shoot, 5A ([1]; soil amended with 200 μM): 6.4**
Hg accumulation, Shoot, 9 ([1]; soil amended with 200 μM): 4.5*
Hg accumulation, Root, 5A ([1]; soil amended with 300 μM): 333.8*
Hg accumulation, Root, 9 ([1]; soil amended with 300 μM): 377.4
Hg accumulation, Shoot, 5A ([1]; soil amended with 300 μM): 0.6*
Hg accumulation, Shoot, 9 ([1]; soil amended with 300 μM): 0.7*
growth of untransformed cells [2]: unable to grow
growth in liquid broth ([3]; 25 and 50 μM HgCl2, LB broth): able to grow
concentrations of HgCl2 in which cells were able to grow ([3]; solid agar plates, LB): up to 100 μM
difference between dry weights of WT and transgenic lines ([4]; concentration from 0 to 300 μM in soil): no significant differences
effect on root lengths of transgenic lines ([4]; concentration in soil from 0 to 300 μM, compared to WT): increased the roots lengths
toxicity to merAB-tobacco plants relative to PMA ([4]; supplied at the same concentration): less toxic
form of mercury accumulated by WT plants (XAS edge-fitting) (WT tobacco plants [5]): entirely in the form of the mercury supplied
effect on root lengths of WT (WT tobacco plants [6]; concentration in soil from 0 to 300 μM): not significantly affected
Hg accumulation, Root, WT ([7]; soil amended with 100 μM): 97.04
Hg accumulation, Shoot, WT ([7]; soil amended with 100 μM): 4.74
Hg accumulation, Root, WT ([7]; soil amended with 200 μM): 143.8
Hg accumulation, Shoot, WT ([7]; soil amended with 200 μM): 0.57
Hg accumulation, Root, WT ([7]; soil amended with 300 μM): 120.1
Hg accumulation, Shoot, WT ([7]; soil amended with 300 μM): 0.23
reduction of chlorophyll content (Salvia natans): 26%
share of accumulated mercury in inorganic Hg-like form (XAS curve fitting) [8]: 77%
share of accumulated mercury in organic Hg-like form (XAS curve fitting) [8]: 33%

O=S(=O)([O-])[O-].[Cd+2] [cadmium sulfate]
level tolerated by Chlorella (Chlorella): at least 200 μM

CC(=O)[O-].[Hg+][c]1ccccc1 [PMA, phenylmercuric acetate]
survival of merAB seedlings ([9]; 200 μM PMA in soil): survived
PMA concentration at which seedlings grew well ([9]; soil, both transgenic clones): up to 100 μM
chlorophyll content of leaf disks [10]: markedly increased
average reduction of root length ([4]; both transgenic lines, concentration increased from 0 μM to 300 μM): 4 cm
dry weights of transgenic lines relative to WT ([4]; under PMA treatment): 2 fold
form of mercury accumulated by WT plants (XAS edge-fitting) (WT tobacco plants [5]): entirely in the form of the mercury supplied
survival of wild type plants ([11]; 50 μM PMA in soil): barely survived
effect on wild type plants ([11]; 100 and 200 μM PMA in soil): lethal
total dry weight of wild type plants (wild type tobacco plants): decreased progressively
chlorophyll content of leaf disks [12]: reduced
average reduction of root length (WT tobacco plants [6]; WT, concentration increased from 0 μM to 300 μM): 6 cm
dry weights of WT shoots and roots (WT tobacco plants [6]; concentration increased from 0 to 300 μM in soil, 15 days): decreased progressively
concentration tolerated when grown in soil ([13]; chloroplast transformed lines): up to 400 μM
total dry weight of transgenic plants ([13]; increase in PMA until PMA reached 400 μM, soil, 14 d): no decrease in total dry weight
